Reference: paper PMC9610617, “Anti-HIV Ermiasolides from Croton megalocarpus” (Molecules, 2022)
Values after ≈ are worked out from the molar mass of the structure shown. Values joined by “and” are separate entries in the source; they are usually repeats but may differ in a detail not shown here. Equal entries are not always repeated. Where two headings read alike, the source gives them in different places.

Legend:
[1] = system: human T-lymphocytic MT-4 cells; assay: in vitro; settings: MT-4 cells, 5 days, MTT, mean ± S.E.M, n = 3; for MNTC, maximum nontoxic concentration: concentration with cell viability above 80% (CC20)
From the text: (§1) In this study, human T-lymphocyte MT-4 cells (ARP-120) were obtained from the National Institute of Health (NIH) HIV Reagent Program, Division of AIDS, National Institute of Allergy and Infectious Diseases (NIAID), NIH; donated by Dr. Douglas Richman. Human T-lymphocytic MT-4 cells express CD4, CXCR4 and CCR5 and are used for cytotoxicity inhibition assays for antiviral drugs. The vials containing frozen MT-4 cells were retrieved from the liquid nitrogen tank and rapidly thawed. In a tissue culture laminar flow hood, the exterior of the vials was decontaminated by spraying 70% ethanol. […] The CCM was sterilized with a 0.22 µm membrane filter before use. The cultures were incubated at 37 °C in a humidified incubator with atmospheric conditions of 5% CO2. […] The cell count and viability were measured by the trypan blue dye exclusion technique.
(§2) The cytotoxicity test was conducted to evaluate the cytotoxicity of the plant extracts by measuring cell death caused by the plant extracts. The assay was conducted using an MTT colorimetric assay as described by. The MTT assay is based on the reduction of the yellow-colored tetrazolium salt MTT 3-(4,5-dimethylthiazol-2-yl)-2,5-diphenyltetrazolium bromide) by NAD(P)H-dependent cellular oxidoreductase enzymes to an insoluble dark-blue colored formazan that can be measured spectrophotometrically. Formazan production indicates the number of viable cells; therefore, an increase or decrease in cellular viability results in a change in the amount of formazan formed, which indicates the degree of cellular cytotoxicity (CC50) caused by the plant extract.
(§3) MTT (3-(4,5-dimethylthiazol-2-yl)-2,5-diphenyl tetrazolium bromide) was dissolved in PBS to obtain a final concentration of 5 mg/mL and filtered to sterilize and remove insoluble residue. The assay was carried out in 96-well, flat-bottomed microtiter plates. To each well, 200 µL of MT-4 cells (1 × 10^5 cells) in growth media was added. The plates were preincubated for 24 h at 37 °C to allow stabilization. Then, 50 μL of the test compounds (at a concentration of 4 mg/mL) were added to the first column of the well. With a multichannel pipette, 50 μL was transferred (in triplicate) from the wells labeled 1 to wells labeled 2, and such transfers were continued (serial dilution), moving from left to right, changing tips prior to mixing contents of the next column of wells. Finally, 50 μL was discarded from the wells in column 12. […] Each dilution was tested in triplicate. The negative control (NC) wells contained 50 µL of MT-4 cells in 0.5% DMSO [39].
(§4) A 96-well microtiter plate containing the test compounds, positive and negative controls was incubated at 37 °C in a humidified atmosphere of 5% CO2 for 5 days. After incubation, 20 μL of MTT reagent (5 mg/mL MTT in phosphate-buffered saline) was added to each test well and control well. The plate was further incubated at 37 °C in a CO2 incubator for 4 h. After 4 h of incubation, 100 μL of DMSO was added to dissolve the dark-blue formazan crystals from surviving cells. After the formazan crystals were dissolved completely, the resulting optical density (OD) readings were measured relative to the controls on an ELISA plate reader at 570 nm at a reference wavelength of 620 nm. […] The concentration that determined cell viability above 80% (CC20) was chosen as the maximum non-toxic concentration (MNTC).

HIV-1IIIB = assay: Anti-HIV activity: inhibition of HIV-induced cytopathic effect in infected MT-4 cells (MTT); format: cell-based, Human immunodeficiency virus type 1; settings: for IC50: Human immunodeficiency virus 1, MT4, 120 h; for SI, selective index: ratio CC50 (MT-4) / IC50 (HIV-1IIIB)
Description: Human immunodeficiency virus type 1 (HIV-1IIIB) strain was obtained from the NIH HIV Reagent Program, Division of AIDS, NIAID, NIH. Dr. Robert Gallo donated human immunodeficiency virus-1 IIIB (ARP-398). HIV-1IIIB is highly capable of replicating in human T cell lines and appears to be well adapted for in vitro culture in T cells. The frozen HIV-1IIIB vials were thawed by immersion in room temperature water, and the vial was swirled until viruses were thawed. Then, 400 µL of the virus was transferred to 75 cm^2 tissue culture flasks (T75) containing 10 mL of 1 × 10^5 pelleted MT4 cells/mL, vortexed and incubated at 37 °C for 1 hr for virus adsorption. After 1 hr, 20 mL of RPMI-1640 was added gently and mixed with vortexing. The cells were then pelleted by centrifuging at 1500 rpm for 5 min. The pelleted cells were then washed and resuspended in 30 mL RPMI 1640 with L-glutamine and 20% fetal bovine serum in a T75 flask, incubated at 37 °C and monitored for the development of cytopathic effects (CPEs).
The virus infectivity test was performed to determine the infectious titer of the virus, which can cause cytopathic effects (CPE) in tissue culture over a reasonable period of 3 to 10 days while cells in culture remain viable. In addition, this procedure was performed to quantify the amount of virus required to produce a cytopathic effect in 50% of cell culture replicates (TCID50). CPE induced by the virus was observed under a microscope after 3–4 days. The TCID50 was then calculated as described by. For the anti-HIV activity testing, 640 µL of HIV-1IIIB virus at 1.26 × 10^8 TCID50/mL was used to infect 1 × 10^8 cell/mL. All procedures were carried out following biosafety guidelines defined in the BMBL, NIH-CDC HHS Publication No. (CDC) 21-1112 [44].
MT-4 cells suspended at 1 × 10^8 cells/mL were infected with 640 µL of HIV-1IIIB virus at 1.26 × 10^8 TCID50/mL as described in above. After infection, 200 µL HIV-infected MT-4 cells (1 × 10^5 cells/well) in growth media were added to each well. The plates were preincubated for 24 h at 37 °C to allow stabilization. Then, 50 μL of the test compounds (at a concentration of 4 mg/mL) were added to the first column of the well. With a multichannel pipette, 50 μL was transferred (in triplicate) from the wells labeled 1 to wells labeled 2. Such transfers were continued (serial dilution), moving from left to right, changing tips prior to mixing contents of the next column of wells. Finally, 50 μL was discarded from the wells in column 12. Different concentrations ([…]) of test compounds were prepared through serial dilution. Each dilution was tested in triplicate. The microtiter plates were incubated at 37 °C in a 5% CO2 incubator for 5 days. […] After 5 days of incubation, cell viability was determined by the MTT assay as described by.
A dose-response curve was plotted to calculate the concentrations that reduced viral replication by 50% (IC50). […] The efficacy of the test compounds, was determined by calculating the viral inhibition rate (EmaxAV) using Equation (1), as previously described by.

in vitro = settings: human, MT-4 T-lymphocytic cells
From the text: as §1, §2, §3, §4

[2] = HIV-1IIIB-infected MT-4 cells, 5 days, MTT, mean ± S.E.M, n = 3
[3] = read-out: IC50, 50% antiviral effect concentration, HIV-1IIIB-infected MT-4 cells, 5 days, MTT, mean ± S.E.M, n = 3

SMILES | MNTC, maximum nontoxic concentration [1] [µg/mL] | CC50, 50% cytotoxic concentration [1] [mg/L] | EmaxC, maximum cytotoxic effect % [1] [%] | EmaxAV, maximum antiviral effect % (viral inhibition rate) (HIV-1IIIB; [2]) | IC50 (HIV-1IIIB; HIV-1IIIB-infected MT-4 cells, 5 days, MTT, mean ± S.E.M, n = 3, read-out: IC50, 50% antiviral effect concentration) [mg/L] | SI, selective index (HIV-1IIIB) | IC50 (HIV-1IIIB; [3]) [mg/L] | CC50 at 5 days (in vitro) [mg/L] | IC50, 50% antiviral effect concentration (HIV-1IIIB; [2]) [mg/L]
Nc1nc(NC2CC2)c2ncn([C@H]3C=C[C@@H](CO)C3)c2n1 [ABC, abacavir, reference compound] | 0.18 ± 0.03 | 0.26 ± 0.00 (≈ 0.908 µM) | 17.83 ± 0.57 | 58.67 ± 0.43% | 0.05 ± 0.031 (≈ 0.175 µM) | 5.0 | – | – | –
Cc1cn([C@H]2C[C@H](N=[N+]=[N-])[C@@H](CO)O2)c(=O)[nH]c1=O [AZT, zidovudine, reference compound] | – | – | – | 83.5 ± 0.57% | – | – | 0.002 (≈ 0.00748 µM) | – | –
CO[C@@]12C[C@]3(C)CCC[C@H](C)[C@@]3(O)CC1=C(C)C(=O)O2 [Compound 1, 5β-Hydroxy-8α-methoxy eudesm-7(11)-en-12,8-olide] | 41.84 ± 0.11 | – | 62.21 ± 0.67 | 93% and 93.4 ± 0.60% | – | 39,872.3 | 0.002 (≈ 0.00713 µM) | 96.77 ± 0.44 (≈ 345 µM) | –
CC1=C2C[C@]3(O)[C@@H](C)CCC[C@@]3(C)C[C@@]2(O)OC1=O [Compound 2, 5β,8α-Dihydroxy eudesm-7(11)-en-12,8-olide] | 4.973 ± 0.25 | – | 81.59 ± 0.41 | 69.5% and 69.51 ± 0.26% | – | 25,339.5 | 0.002 (≈ 0.00751 µM) | 38.4 ± 0.63 (≈ 144 µM) | –
CC1=C2C[C@]3(O)[C@@H](C)CCC[C@@]3(C)C[C@@H]2OC1=O [Compound 3, 5β-Hydroxy-8H-β-eudesm-7(11)-en-12,8-olide] | 64.93 ± 0.26 | – | 65.00 ± 0.01 | 77.5% and 77.46 ± 0.93% | – | 3384.4 | 0.04 (≈ 0.16 µM) | 148.1 ± 0.05 (≈ 592 µM) | 0.044 ± 0.01 (≈ 0.176 µM)
Cc1ccnc2c1NC(=O)c1cccnc1N2C1CC1 [NVP, Nevirapine, reference compound] | 0.57 ± 0.0 | 0.82 ± 0.0 (≈ 3.08 µM) | 39.13 ± 0.65 | 72.53 ± 0.47% | – | 3.5 | 0.24 ± 0.09 (≈ 0.901 µM) | – | –
C[C@H](Cn1cnc2c(N)ncnc21)OCP(=O)(O)O [TDF, tenofovir] | 4.92 ± 0.71 | 6.73 ± 0.24 (≈ 23.4 µM) | 13.17 ± 0.43 | 80.55 ± 0.46% | – | – | 0.04 ± 0.01 (≈ 0.139 µM) | – | –
